Test results: patent US9801844B2, “Methods and compositions for the treatment of cancer” (priority 2012, dated 2017)
Values joined by “and” are separate entries in the source; they are usually repeats but may differ in a detail not shown here. Identical values can stand only once. Like-named read-outs stand apart in the source and are kept apart here. One block for each compound: values may come before it.

Tests used:
[1] = tested on: MDA-MB-453 Her2 overexpressing human breast cancer cells; test: MTT cell proliferation assay on MDA-MB-453 cells; type: cell-based; conditions: MDA-MB-453 cells, MTT assay; for IC50: read-out: IC50, concentration that caused 50% inhibition of cell proliferation
Description: Cells were exposed to increasing concentrations of agents for 96 h and the number of viable cells determined by the MTT assay.

[2] = tested on: MDA-MB-468 triple negative breast cancer cells; test: MTT cell proliferation assay on MDA-MB-468 cells; type: cell-based, human; conditions: Homo sapiens, MDA-MB-468, MDA-MB-468 cells, MTT assay; read-out: IC50 growth inhibition
Description: MDA-MB-453 (ER negative, Her2 overexpressing), MDA-MB-468 (triple negative) and MCF7 (ER positive, Her2 low) cells, HT29 (p53 positive human colon cancer cells) (ATCC, Manassas, Va.) were grown in Dulbecco's Modified Eagle's medium (DMEM) (Gibco BRL Life Technologies, Inc., Rockville, Md.) containing 10% (v/v) fetal bovine serum (FBS) (Gibco BRL) at 37° C., 5% C02. SUM 149 (Her2 overexpressing, ER low) (the gift of Dr. R. Parsons, Columbia University Medical Center, New York, N.Y.) were cultivated in Ham's F-12 medium with 10% FBS. MCF7 and MCF7/Her2-18 (MCF7 cells transfected with a full length Her2 cDNA coding region, 45-fold increase Her2) were the kind gift of Dr. Dennis Slamon (Los Angeles, Calif.). These cells were maintained in RPMI supplemented with 10% FBS plus glutamine (1%) and PSF (1%) (Gibco, Rockville Md.).
MTT assay: the MTT {3-(4,5-dimethyl-2-thiazol)-2,5-diphenyl-2H tetrazolilum bromide} (Dojindo; Tokyo, Japan) cell proliferation assay system (Roche Diagnostic, Mannheim, Germany) was used to determine the sensitivity of the various cell lines to agents. Cells were seeded at 1×10^4 cells/well in 96-well plates and allowed to attach for 24 h. The medium was replaced with fresh medium containing DMSO or compound. The cells were treated for 96 or 120 h, after which they were incubated with MTT reagents and the absorbance read at 650 and 575 nm. For cell growth assays, the data are expressed as mean+/−standard deviation. Control and treated cells were compared using the student's t-test (p<0.05).
To determine the Combination Index (CI), cells were treated with all combinations of 4 or 5 concentrations of each of the agents tested and a solvent control. The results of the MTT assay were analyzed for possible synergistic effects using the median effect principle. Variable ratios of drugs were employees and mutually exclusive equations were assumed.

[3] = biological target: Na+-K+-ATPase; test: Enzymatic assay of ATPase activity; type: biochemical; conditions: purified enzyme, in vitro; read-out: 50% inhibition, IC50 value, of Na+-K+-ATPase activity
Description: The enzymatic assay of ATPase (adenosine 5′-triphosphatase, EC 3.6.1.3) followed the Sigma Prod. No. A-7510 protocol (Sigma-Aldrich, St. Louis, Mo., USA). Agents (0.05 ml) were pipetted with ATPase (0.05 ml, 0.5 units/ml, Sigma-Aldrich, St. Louis, Mo., USA), mixed and equilibrated for 5 min at 37° C. Taussky-Shorr reagent (10 ml of 10% ammonium molybdate in 10 N H2SO4) was pipetted to 70 ml H2O, 5 g of ferrous sulfate heptahydrate was added, and the volume was brought to 100 ml with H2O. Test supernatant (0.5 ml) and H2O (0.5 ml) were mixed and incubated at 25° C., and the absorbance read at A660 nm.
To determine whether the Na+-K+-ATPase is involved in the mechanism of action of CA and curcumin, the ability of these agents to inhibit the in vitro activity of the purified enzyme was assayed.

[4] = tested on: SKOV3 (Her2 overexpressing) human ovarian cancer cells; test: MTT cell proliferation assay on SKOV3 cells; type: cell-based; conditions: SKOV3, 96 h
Description: SKOV3 (Her2 overexpressing) ovarian cancer cells (ATCC, Manassas, Va.), were grown in McCoy's media (Gibco BRL Life Technologies, Inc., Rockville, Md.) containing 10% (v/v) fetal bovine serum (FBS) (Gibco BRL) at 37° C., 5% C02, plus Penn-Strep (Sigma).
The MTT [3-(4,5-dimethyl-2-thiazol)-2,5-diphenyl-2H tetrazolilum bromide] (Dojindo; Tokyo, Japan) cell proliferation assay system (Roche Diagnostic, Mannheim, Germany) was used to determine the sensitivity of the cell lines to agents. Cells were seeded at 1×10^4 cells/well in 96-well plates and allowed to attach for 24 h. The medium was replaced with fresh medium containing DMSO or compound. The cells were treated for 96 h, after which the media was replaced with fresh media; the cells were incubated with MTT reagents and the absorbance read at 650 and 575 nm. The 650 reading was subtracted from the 575 reading to correct for background absorbance.

Compound: COc1cc(/C=C/C(=O)CC(=O)/C=C/c2ccc(O)c(OC)c2)ccc1O [curcumin]
IC50 ([1]; Homo sapiens): 2 µg/mL and 5.4 µM
IC50 [2]: 2.3 µg/mL and 6.2 µM
IC50 [3]: ~2 µM

Compound: O=C(O[C@@H]1Cc2c(O)cc(O)cc2O[C@@H]1c1cc(O)c(O)c(O)c1)c1cc(O)c(O)c(O)c1 [EGCG, reference compound]
IC50, concentration that caused 50% inhibition of cell proliferation [1]: ~100 µg/mL
IC50 [1]: 218 µM

Compound: CC(=O)O[C@@H]1C[C@@]23C[C@@]24CC[C@H](O[C@@H]2OC[C@@H](O)[C@H](O)[C@H]2O)C(C)(C)[C@@H]4CC[C@H]3[C@]2(C)C[C@@H]3O[C@]4(C[C@@H](C)[C@@H]3[C@@]12C)O[C@H](O)[C@@]1(C)O[C@@H]41 [ACT, actein, reference compound]
% cell proliferation ([4]; 5 μg/ml): 114.4%
% cell proliferation ([4]; 10 μg/ml): 116.1%
% cell proliferation ([4]; 15 μg/ml): 108.0%
% cell proliferation ([4]; 20 μg/ml): 98.1%

Results, then the compound that gave them:

IC50 ([1]; Homo sapiens): ~56 µg/mL and ~150 µM
Compound: O=C(/C=C/c1ccc(O)c(O)c1)O[C@H](Cc1ccc(O)c(O)c1)C(=O)O [rosmarinic acid, reference compound]

IC50 ([1]; Homo sapiens): 4 µg/mL and 17.5 µM
Compound: Oc1ccc(C=Cc2cc(O)cc(O)c2)cc1 [resveratrol, reference compound]
